Experimental data as given in US11072607B2, “Inhibitors of RIP1 kinase and methods of use thereof” (priority 2016, dated 2021).
pKi: −log10 of the molar value. Where two headings read alike, the source gives them in different places.

Target: human RIP1 kinase domain (2-375) (Homo sapiens (Human), UniProt Q13546)
Assay: RIP1 kinase inhibition assay (biochemical, Transcreener ADP assay)
Conditions: tight-binding apparent inhibition constant (Ki app, Morrison equation), 50 nM enzyme, 50 uM ATP, 2 hours incubation, fluorescence polarization
Procedure: Example 45: RIP1 Kinase Inhibition Assays (Biochemical Assay)
The compounds of the present invention were tested for their capacity to inhibit RIP1K activity as described below.
The ability of the receptor interacting protein kinase (RIPK1) to catalyze the hydrolysis of adenosine-5′-triphosphate (ATP) is monitored using the Transcreener ADP (adenosine-5′-diphosphate) assay (BellBrook Labs). Purified human RIP1 kinase domain (2-375) (50 nM) derived from a baculovirus-infected insect cell expression system is incubated with test compounds for 2 hours in 50 mM Hepes buffer (pH 7.5) containing 30 mM MgCl2, 1 mM dithiothreitol, 50 uM ATP, 0.002% Brij-35, and 0.5% dimethyl sulfoxide (DMSO). Reactions are quenched by the addition of 1× Bell Brooks Stop buffer B (20 mM Hepes (ph 7.5), 40 mM ethylenediaminetetraacetic acid and 0.02% Brij-35) containing an additional 12 mM EDTA and 55 ug/mL ADP2 antibody and 4 nM ADP-AlexaFluor® 633 tracer. The tracer bound to the antibody is displaced by the ADP generated during the RIP1K reaction, which causes a decrease in fluorescence polarization that is measured by laser excitation at 633 nm with a FP microplate reader M1000. Fractional activity was plotted against test article concentration. Using Genedata Screener software (Genedata; Basel, Switzerland), the data were fit to the tight-binding apparent inhibition constant (Ki^app) Morrison equation [Williams, J. W. and Morrison, J. F. (1979) The kinetics of reversible tight-binding inhibition. Methods Enzymol 63: 437-67]. The following equation was used to calculate fractional activity and Ki^app: […]
where [E]T and [I]T are the total concentrations of active enzyme and test article, respectively. […]

Chain of human RIP1 kinase domain (2-375) (Q13546 2-375): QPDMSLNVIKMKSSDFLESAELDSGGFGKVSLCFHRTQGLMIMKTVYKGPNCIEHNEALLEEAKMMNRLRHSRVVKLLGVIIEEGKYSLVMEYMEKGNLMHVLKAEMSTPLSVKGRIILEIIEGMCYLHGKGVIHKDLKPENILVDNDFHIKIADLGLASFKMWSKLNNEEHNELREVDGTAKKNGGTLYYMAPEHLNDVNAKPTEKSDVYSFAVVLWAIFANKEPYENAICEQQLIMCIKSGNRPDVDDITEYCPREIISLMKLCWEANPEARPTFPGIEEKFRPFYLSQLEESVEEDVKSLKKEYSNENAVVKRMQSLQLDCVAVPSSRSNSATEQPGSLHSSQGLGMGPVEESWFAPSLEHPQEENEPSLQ

| pKi (RIP1 Ki) | pKi (read-out: RIP1 Ki) | Structure (SMILES) |
| --- | --- | --- |
| 7.55 | – | CN1C(=O)[C@@H](NC(=O)c2nc3n(n2)[C@@H](c2ccccc2)CC3(F)F)CCn2nccc21 (racemic) [Example #43, rac-(5R)-7,7-difluoro-5-phenyl-N-[rac-(6S)-4-methyl-5-oxo-7,8-dihydro-6H-pyrazolo[1,5-a][1,3]diazepin-6-yl]-5,6-dihydropyrrolo[1,2-b][1,2,4]triazole-2-carboxamide] |
| – | 7.59 | CN1C(=O)[C@@H](NC(=O)c2ncn(Cc3ccccc3F)n2)CCc2nn(C)cc21 (single isomer, unassigned) [Example #21] |
| 7.57 | – | Cc1cc2n(n1)CC[C@H](NC(=O)c1nc3n(n1)[C@H](c1ccccc1)C[C@@H]3F)C(=O)N2C (racemic) [Example #39, rac-(5S,7S)-7-fluoro-5-phenyl-N-[rac-(6S)-2,4-dimethyl-5-oxo-7,8-dihydro-6H-pyrazolo[1,5-a][1,3]diazepin-6-yl]-6,7-dihydro-5H-pyrrolo[1,2-b][1,2,4]triazole-2-carboxamide] |

The next lines start with the compound.

| Structure (SMILES) | pKi (RIP1 Ki) | pKi (read-out: RIP1 Ki) |
| --- | --- | --- |
| CN1C(=O)[C@@H](NC(=O)c2nc3n(n2)C(c2ccccc2)CC3F)CCn2nccc21 (stereo partly drawn) [Example #26, 7-fluoro-5-phenyl-N-[(6S)-4-methyl-5-oxo-7,8-dihydro-6H-pyrazolo[1,5-a][1,3]diazepin-6-yl]-6,7-dihydro-5H-pyrrolo[1,2-b][1,2,4]triazole-2-carboxamide] | – | 7.31 |
| Cc1cc2n(n1)CC[C@H](NC(=O)c1nc3n(n1)CC[C@H]3c1ccccc1F)C(=O)N2C (single isomer, unassigned) [Example #8] | – | 7.74 |
